Reference: patent US20090018194A1, “Use of antimicrobial agents derived from alliaceous plants for the prevention and control of crop diseases, post-harvest rot and as environmental disinifectant products” (DMC Research Center, S.L., priority 2007, published 2009)

Key:
[1] = system: Bacillus cereus ATCC 10876; experiment: agar diffusion test with impregnated cellulose discs; type: cell-based; conditions: incl. 6 mm disc
[2] = system: Escherichia coli ATCC 25922; experiment: as above; type: cell-based; conditions: incl. 6 mm disc
[3] = system: Pseudomonas aeruginosa ATCC 9027; experiment: as above; type: cell-based; conditions: incl. 6 mm disc
Fusarium spp. = experiment: field tests on affected asparagus, Fusarium spp. in roots; type: in vivo; conditions: 60 days after application, compared to untreated control
Experimental: The treatment doses used were 250, 500 and 1000 ppm of both active principles (PT and PTSO), and the initial incidence of the pathogen was compared with its presence 60 days after its application.
To analyze the growth of the crops infected by Fusarium spp. after the treatments, root and soil samples were taken and tests were performed in the laboratory to investigate the incidence of the pathogen in the roots and soil. The cultivation media used were potato dextrose agar and rose bengal agar (to prevent the invasive character of the Mucoralean fungi).
The soil analysis was conducted by sequential dilutions of the soils in physiological serum with a subsequent sowing in the above mentioned media. The analysis of the roots was performed after dissection of the infected tissues, which were deposited in triplicate on filter paper located above both media, and their evolution over time was studied.
The data are expressed as a percentage of elimination and reduction as a function of the treatment dose compared to the untreated control samples.

[4] = system: Ralstonia solanacearum Strain GM1000; type: cell-based; conditions: in vitro tests
post-harvest rot = post-harvest rot of oranges originating directly from the field (not inoculated); type: in vivo; conditions: for % of fruit affected: oranges refrigerated for 28 days at 5° C., 200 fruits not inoculated; for reduction of the quantity of fruit affected compared to the untreated fruit: specified doses, end of the refrigeration period (28 days at 5° C.)
Experimental: Once the oranges had been artificially contaminated, the treatments were conducted by immersing the oranges in solutions of PTS and PTSO prepared at doses of 1600 and 2500 ppm, and were stored at 20° C.
The assessment of the effectiveness of PTS and PTSO comprised counting of the number of fruits affected by rot in the inoculated zone, to determine the percentage of fruit affected for each treatment and fungus inoculated, and expressing this effectiveness as a percentage of reduction of the affected fruit.
On the basis of the results obtained by the application of PTS and PTSO to oranges of the Navelina variety originating directly from the field, both products, applied in the specified doses, are effective in the control of post-harvest rot. Both PTS and PTSO in turn reduce by 50% the quantity of fruit affected at the end of the refrigeration period (28 days at a temperature of 5° C.) compared to the untreated fruit, as a result of which they are an effective alternative to the synthetic treatments conventionally used.

R. stolonifer = experiment: disinfection of artificially contaminated containers by drencher; set-up: species or system Rhizopus stolonifer; conditions: drencher 30 seconds
Experimental: A test of the disinfection of containers (fruit boxes and crates) was conducted in which a level of artificial contamination was created by means of controlled inoculation, with the objective of determining optimum doses of application to achieve a satisfactory disinfection. First the containers (made of wood and plastic) were disinfected with sodium hypochlorite, and they were then artificially contaminated via controlled inoculations with different fungi characteristic of the fruit and vegetable processing sector. For this purpose, isolated wild strains were used which, after sporulation, were collected to create a suspension of mixed spores of various fungi (Penicillium expansum, Penicillium italicum, Penicillium digitarum and Alternario alternata) and, separately in simultaneous tests (as a result of its higher rate of growth and its invasive character), a suspension of Rhizopus stolonifer. […] After this fogging, the containers were allowed to dry. The containers were then sampled to determine the level of initial contamination achieved (by means of contact plates containing Rose Bengal agar). The containers were then treated in a pilot line […]. The hold time of the containers under the showers was 30 seconds, and the test doses were 750 ppm and 1050 ppm for PTS and 2000 ppm and 5000 ppm in the case of PTSO. After exiting the showers, the treated containers were allowed to dry, and were again sampled using contact plates with Rose Bengal agar to determine the final level of contamination. The sampling unit was 3 containers and 3 plates per repetition.

[5] = system: mixture of fungi (P. expansum, P. italicum, P. digitatum and A. alternata); experiment: disinfection of rooms by means of fogging
Rhizopus stolonifer = experiment: disinfection of containers stored inside the rooms by fogging
fungal population = experiment: disinfection by drencher of naturally contaminated containers of a citrus fruit processing plant
[6] = system: the most characteristic diseases that affect these crops; experiment: in vivo tests against pre-harvest diseases in various crops (Table 7); conditions: pre-harvest diseases and pathogens listed in Table 7
Experimental: B. Likewise, numerous tests were conducted “in vivo” to determine the effectiveness of the products for pre- and post-harvest treatments, and also as disinfectant agents for agricultural soils and facilities in the food processing industries.
In post-harvest treatments, tests were conducted in strawberries, citrus fruits, stone fruits and tropical fruits. Tests were also conducted on vegetable plants in a greenhouse (tomatoes, melons, zucchini, peppers, cucumbers and green beans).

SMILES: CCCS[S+]([O-])CCC (stereo not drawn) [PTS, Propyl Propyl Thiosulfinate]
- diameter of the microbial inhibition halo ([1]; 60 ppm): 15 mm
- diameter of the microbial inhibition halo ([1]; 125 ppm): 20 mm
- diameter of the microbial inhibition halo ([1]; 250 ppm): 25 mm
- diameter of the microbial inhibition halo ([1]; 500 ppm): 27 mm
- diameter of the microbial inhibition halo ([1]; 1000 ppm): 35 mm
- diameter of the microbial inhibition halo ([2]; 60 ppm): 12 mm
- diameter of the microbial inhibition halo ([2]; 125 ppm): 17 mm
- diameter of the microbial inhibition halo ([2]; 250 ppm): 24 mm
- diameter of the microbial inhibition halo ([2]; 500 ppm): 25 mm
- diameter of the microbial inhibition halo ([2]; 1000 ppm): 27 mm
- diameter of the microbial inhibition halo ([3]; 60 ppm): 8 mm
- diameter of the microbial inhibition halo ([3]; 125 ppm): 9 mm
- diameter of the microbial inhibition halo ([3]; 250 ppm): 10 mm
- diameter of the microbial inhibition halo ([3]; 500 ppm): 12 mm
- diameter of the microbial inhibition halo ([3]; 1000 ppm): 14 mm
- % Reduction (Fusarium spp.; 250 ppm): 60%
- % elimination (Fusarium spp.; 250 ppm): 0%
- % Reduction (Fusarium spp.; 500 ppm): 14%
- % elimination (Fusarium spp.; 500 ppm): 57%
- % Reduction (Fusarium spp.; 1000 ppm): 13%
- % elimination (Fusarium spp.; 1000 ppm): 58%
- effectiveness of the application (in words) [4]: highly effective
- % of fruit affected (post-harvest rot; 1666 ppm): 10%
- reduction of the quantity of fruit affected compared to the untreated fruit (post-harvest rot): 50%
- Reduction of the population (%) (R. stolonifer; 750 ppm, Plastic container): 100%
- Reduction of the population (%) (R. stolonifer; 750 ppm, Wood container): 94%
- Reduction of the population (%) (R. stolonifer; 1050 ppm, Plastic container): 99%
- Reduction of the population (%) (R. stolonifer; 1050 ppm, Wood container): 100%
- Reduction in the population of the mixture of fungi expressed in % ([5]; 750 ppm, Environment): 89%
- Reduction in the population of the mixture of fungi expressed in % ([5]; 750 ppm, Walls): 96%
- Reduction in the population of the mixture of fungi expressed in % ([5]; 1050 ppm, Environment): 100%
- Reduction in the population of the mixture of fungi expressed in % ([5]; 1050 ppm, Walls): 97%
- Reduction of the population (%) (Rhizopus stolonifer; 750 ppm, Plastic container): 36%
- Reduction of the population (%) (Rhizopus stolonifer; 1050 ppm, Plastic container): 27%
- Reduction of the population (%) (Rhizopus stolonifer; 1050 ppm, Wood container): 26%
- Reduction of the fungal population (%) (fungal population; PTS 750 mm, Bottom of the pallet, Beginning of bath): 87%
- Reduction of the fungal population (%) (fungal population; PTS 750 mm, Bottom of the pallet, End of bath): 79%
- Reduction of the fungal population (%) (fungal population; PTS 750 mm, Side of the pallet, Beginning of bath): 97%
- Reduction of the fungal population (%) (fungal population; PTS 750 mm, Side of the pallet, End of bath): 100%
- control capability against the most characteristic diseases of the crops (in words) [6]: high control capability

SMILES: CCCSS(=O)(=O)CCC [PTSO, Propyl Propyl Thiosulfonate]
- diameter of the microbial inhibition halo ([1]; 60 ppm): 25 mm
- diameter of the microbial inhibition halo ([1]; 125 ppm): 35 mm
- diameter of the microbial inhibition halo ([1]; 250 ppm): 45 mm
- diameter of the microbial inhibition halo ([1]; 500 ppm): 47 mm
- diameter of the microbial inhibition halo ([1]; 1000 ppm): 49 mm
- diameter of the microbial inhibition halo ([2]; 60 ppm): 18 mm
- diameter of the microbial inhibition halo ([2]; 125 ppm): 19 mm
- diameter of the microbial inhibition halo ([2]; 250 ppm): 26 mm
- diameter of the microbial inhibition halo ([2]; 500 ppm): 27 mm
- diameter of the microbial inhibition halo ([2]; 1000 ppm): 29 mm
- diameter of the microbial inhibition halo ([3]; 60 ppm): 6.5 mm
- diameter of the microbial inhibition halo ([3]; 125 ppm): 8 mm
- diameter of the microbial inhibition halo ([3]; 250 ppm): 9 mm
- diameter of the microbial inhibition halo ([3]; 500 ppm): 10 mm
- diameter of the microbial inhibition halo ([3]; 1000 ppm): 12 mm
- % Reduction (Fusarium spp.; 250 ppm): 25%
- % elimination (Fusarium spp.; 250 ppm): 33%
- % Reduction (Fusarium spp.; 500 ppm): 14%
- % elimination (Fusarium spp.; 500 ppm): 86%
- % Reduction (Fusarium spp.; 1000 ppm): 43%
- % elimination (Fusarium spp.; 1000 ppm): 57%
- effectiveness of the application (in words) [4]: highly effective
- % of fruit affected (post-harvest rot; 2500 ppm): 15%
- reduction of the quantity of fruit affected compared to the untreated fruit (post-harvest rot): 50%
- Reduction of the population (%) (R. stolonifer; 2000 ppm, Plastic container): 100%
- Reduction of the population (%) (R. stolonifer; 2000 ppm, Wood container): 96%
- Reduction of the population (%) (R. stolonifer; 5000 ppm, Plastic container): 100%
- Reduction of the population (%) (R. stolonifer; 5000 ppm, Wood container): 98%
- Reduction in the population of the mixture of fungi expressed in % ([5]; 2000 ppm, Environment): 100%
- Reduction in the population of the mixture of fungi expressed in % ([5]; 2000 ppm, Walls): 95%
- Reduction in the population of the mixture of fungi expressed in % ([5]; 5000 ppm, Environment): 100%
- Reduction in the population of the mixture of fungi expressed in % ([5]; 5000 ppm, Walls): 100%
- Reduction of the population (%) (Rhizopus stolonifer; 2000 ppm, Plastic container): 77%
- Reduction of the population (%) (Rhizopus stolonifer; 2000 ppm, Wood container): 78%
- Reduction of the population (%) (Rhizopus stolonifer; 5000 ppm, Plastic container): 71%
- Reduction of the population (%) (Rhizopus stolonifer; 5000 ppm, Wood container): 56%
- Reduction of the fungal population (%) (fungal population; PTSO 2000 ppm, Bottom of the pallet, Beginning of bath): 93%
- Reduction of the fungal population (%) (fungal population; PTSO 2000 ppm, Bottom of the pallet, End of bath): 96%
- Reduction of the fungal population (%) (fungal population; PTSO 2000 ppm, Side of the pallet, Beginning of bath): 100%
- Reduction of the fungal population (%) (fungal population; PTSO 2000 ppm, Side of the pallet, End of bath): 87%
- control capability against the most characteristic diseases of the crops (in words) [6]: high control capability
